Structures are written as SMILES. Where “and” joins values, the source holds several entries; their conditions need not be identical. Identical values can stand only once.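 48-hour exposure; five concentrations; linearly interpolated endpoints. Abbreviation: GI50, concentration required for 50% inhibition of growth. At the TGI there is no net growth.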

The first assay relates to A549 NSCLC. Put plainly: NCI anticancer screen, dose series, 48 h.
As for `COC(=O)c1cc2c3ccccc3[nH]c2c2ncccc12`, the GI50 is 75.1 µM and the TGI was greater than 100 µM.
Compound `CNC(=O)OCc1c(COC(=O)NC)c(-c2ccc(Cl)c(Cl)c2)n2c1SCC2` yielded a TGI greater than 88 µM.
Turning to `COc1cc(OC)cc(-c2ccc(-c3ccc(C(=N)N)o3)o2)c1`, the GI50 is 3.78 µM and the TGI was 13.3 µM.
The like results for `C[C@]12CC[C@H](O)CC1=CC[C@@H]1[C@@H]2CC[C@]2(C)C(c3cccnc3)=CC[C@@H]12` were, in that order, greater than 100 µM and greater than 100 µM.
In the case of `Cc1ccc2c(c1)C(=O)/C(=C/c1ncc([N+](=O)[O-])n1C)O2`, the GI50 is 2.74 µM and the TGI was determined as 9.29 µM.
With `O=C(NCCOCCOCCNc1cccc2c1C(=O)N(C1CCCNC1=O)C2=O)c1cc2c(o1)C(=O)c1ccccc1C2=O` (stereo not given), the GI50 is 2.11 µM and the TGI was found to be 4.8 µM.
For `O=C(CN1CCOCC1)Nc1ccc(Cn2nnc3c2C(=O)c2nnn(Cc4ccc(NC(=O)CN5CCOCC5)cc4)c2C3=O)cc1`, in that order: 1.99 µM and 4.97 µM.
For the compound `O=C(c1ccco1)c1nc2ccc(C(F)(F)F)cc2[n+]([O-])c1C(F)(F)F`, the GI50 is 33.7 µM and the TGI is greater than 100 µM.
In the case of `C=C(CN1CCc2ccccc2C1)c1ccc(C(=O)Nc2cnccn2)cc1`, the GI50 is 31 µM and the TGI was greater than 100 µM.
For `CCCCC/C(C=C(C#N)C#N)=C/c1ccccc1`, in that order: 8.95 µM and greater than 43.6 µM.
In the case of `CC1CCC2(C(=O)O)CCC3(C)C(=CCC4C5(C)CC(O)C(O)C(C)(CO)C5C(O)CC43C)C2C1C` (stereo not given), the TGI was greater than 100 µM.
For `Cc1ccc(S(=O)(=O)N(CCOc2ccc(/C(N)=N/Cl)cc2)CCOc2ccc(/C(N)=N\Cl)cc2)cc1`, the GI50 was 4.88 µM and the TGI was greater than 100 µM.
The like results for `COc1ccc(C2=NN(C(=O)c3cc(OC)c(OC)c(OC)c3)C(c3ccc(C#N)cc3)C2)cc1OC` (stereo not given) were, in that order, 2.32 µM and greater than 100 µM.
For `CCOc1cccc(/C=N/NC(=O)c2ccccc2Nc2ccnc(C(F)(F)F)c2)c1O`, in that order: 1.64 µM and greater than 100 µM.
The like results for `CSc1cc(N=Nc2nc3ccccc3s2)c2ccccc2c1O` were, in that order, 12.1 µM and 28.1 µM.
As for `CCOC(=O)/C=C(/C(=O)OCC)n1cc(Cl)c(=O)n(CC(=O)OCC)c1=O`, the GI50 is 23.4 µM; the TGI is 18.1 µM and 67 µM.
With `CC1=C(C(=O)Nc2ccc3[nH]ncc3c2)C(c2ccc3ccccc3c2)CC(=O)N1` (stereo not given), the GI50 was greater than 25 µM and the TGI is greater than 25 µM.
For the compound `O=C1NNC=Nc2ccc(cc2)S(=O)(=O)c2ccc(cc2)N=CNNC1=O`, the TGI is greater than 100 µM.
Turning to `CC1OC(O[C@H]2C[C@@H](O)[C@]3(CO)[C@H]4[C@H](O)C[C@]5(C)[C@@H](C6=CC(=O)OC6)CC[C@]5(O)[C@@H]4CC[C@]3(O)C2)C(O)C(O)C1O` (stereo not given in full), the GI50 was 21.2 µM and the TGI turned out to be 39 µM.

The test system of another assay is ACHN renal. Put plainly: NCI anticancer screen, dose series, 48 h.
In the case of `COC(=O)c1cc2c3ccccc3[nH]c2c2ncccc12`, the GI50 is 11.2 µM and the TGI was greater than 100 µM.
Regarding `CNC(=O)OCc1c(COC(=O)NC)c(-c2ccc(Cl)c(Cl)c2)n2c1SCC2`, the TGI came to 17.6 µM.
With `COc1cc(OC)cc(-c2ccc(-c3ccc(C(=N)N)o3)o2)c1`, the GI50 is 2.05 µM and the TGI came to 4.22 µM.
Take `C[C@]12CC[C@H](O)CC1=CC[C@@H]1[C@@H]2CC[C@]2(C)C(c3cccnc3)=CC[C@@H]12`: the GI50 was 18.7 µM and the TGI is greater than 100 µM.
With `Cc1ccc2c(c1)C(=O)/C(=C/c1ncc([N+](=O)[O-])n1C)O2`, the GI50 is 0.489 µM and the TGI was found to be 9.11 µM.
The like results for `O=C(NCCOCCOCCNc1cccc2c1C(=O)N(C1CCCNC1=O)C2=O)c1cc2c(o1)C(=O)c1ccccc1C2=O` (stereo not given) were, in that order, 2.29 µM and 6.5 µM.
The like results for `O=C(CN1CCOCC1)Nc1ccc(Cn2nnc3c2C(=O)c2nnn(Cc4ccc(NC(=O)CN5CCOCC5)cc4)c2C3=O)cc1` were, in that order, 4.01 µM and 20.2 µM.
For `O=C(c1ccco1)c1nc2ccc(C(F)(F)F)cc2[n+]([O-])c1C(F)(F)F`, in that order: 54.5 µM and greater than 100 µM.
`C=C(CN1CCc2ccccc2C1)c1ccc(C(=O)Nc2cnccn2)cc1`: the GI50 was 30.8 µM and the TGI is greater than 100 µM.
For `CCCCC/C(C=C(C#N)C#N)=C/c1ccccc1`, in that order: 4.53 µM and 16.5 µM.
With `CC1CCC2(C(=O)O)CCC3(C)C(=CCC4C5(C)CC(O)C(O)C(C)(CO)C5C(O)CC43C)C2C1C` (stereo not given), the TGI was greater than 100 µM.
Regarding `Cc1ccc(S(=O)(=O)N(CCOc2ccc(/C(N)=N/Cl)cc2)CCOc2ccc(/C(N)=N\Cl)cc2)cc1`, the GI50 is greater than 100 µM and the TGI was greater than 100 µM.
For `COc1ccc(C2=NN(C(=O)c3cc(OC)c(OC)c(OC)c3)C(c3ccc(C#N)cc3)C2)cc1OC` (stereo not given), the GI50 is 1.45 µM and the TGI was greater than 66.5 µM.
In the case of `CCOc1cccc(/C=N/NC(=O)c2ccccc2Nc2ccnc(C(F)(F)F)c2)c1O`, the GI50 is 0.271 µM and the TGI was greater than 67.8 µM.
In the case of `CSc1cc(N=Nc2nc3ccccc3s2)c2ccccc2c1O`, the GI50 was 6.57 µM and the TGI worked out at 13.1 µM.
As for `CCOC(=O)/C=C(/C(=O)OCC)n1cc(Cl)c(=O)n(CC(=O)OCC)c1=O`, the GI50 was 2.55 µM; the TGI is 7.35 µM and 6.22 µM.
In the case of `CC1=C(C(=O)Nc2ccc3[nH]ncc3c2)C(c2ccc3ccccc3c2)CC(=O)N1` (stereo not given), the GI50 was greater than 25 µM and the TGI is greater than 25 µM.
For `O=C1NNC=Nc2ccc(cc2)S(=O)(=O)c2ccc(cc2)N=CNNC1=O`, the TGI is greater than 100 µM.
For the compound `CC1OC(O[C@H]2C[C@@H](O)[C@]3(CO)[C@H]4[C@H](O)C[C@]5(C)[C@@H](C6=CC(=O)OC6)CC[C@]5(O)[C@@H]4CC[C@]3(O)C2)C(O)C(O)C1O` (stereo not given in full), the GI50 is 20.2 µM and the TGI worked out at 35.5 µM.

These data come from PubChem BioAssay (NCI).
